From the supplement of paper PMC10307832

Key:
Assay in all cases: relative viability (nuclei count vs DMSO), 5 days (fraction); higher = more cells survive
Erlotinib = compound: C#Cc1cccc(Nc2ncnc3cc(OCCOC)c(OCCOC)cc23)c1 [Erlotinib]
In short: (§1)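 Lung cancer cell lines in 1536-well plates were exposed by pinning to five library-drug doses (not always all listed) √10 apart, following an overnight hold at 37 °C. MetaXpress counted Hoechst-stained nuclei from 4× images taken after 5 days without medium change. Viability is the median ratio of treated-well to vehicle-well nuclei across plates. Plates required control CV below 25% and at least one doubling.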

AT9283 = compound: O=C(Nc1c[nH]nc1-c1nc2ccc(CN3CCOCC3)cc2[nH]1)NC1CC1 [AT9283]
In short: as §1

Phenformin = compound: N=C(N)NC(=N)NCCc1ccccc1 [Phenformin] (anchor plate); conditions: 250 µM
In short: as §1

| Cell Line | relative viability (Erlotinib; 0.02 µM) | relative viability (Erlotinib; 0.2 µM) | relative viability (Erlotinib; 0.6325 µM) | relative viability (Erlotinib; 2 µM) | relative viability (AT9283; 0.003 µM) | relative viability (AT9283; 0.03 µM) | relative viability (AT9283; 0.09487 µM) | relative viability (AT9283; 0.3 µM) | relative viability (Phenformin) |
| --- | --- | --- | --- | --- | --- | --- | --- | --- | --- |
| NCI-H2347 | 1.03 | 1.06 | 0.987 | 0.952 | 1.16 | 1 | 0.597 | 0.514 | 0.421 |
| NCI-H2405 | 0.986 | 1 | 1.12 | 0.956 | 1 | 0.965 | 0.519 | 0.256 | 0.379 |
| NCI-H3122 | 0.987 | – | 1 | 0.977 | 0.982 | 0.963 | 0.619 | 0.236 | 0.386 |
| PC-3 [JPC-3] | 0.945 | 0.636 | 0.459 | 0.407 | 1.03 | 0.961 | 0.868 | 0.498 | 0.469 |
| PC-14 | 0.574 | 0.31 | 0.289 | 0.228 | 1.05 | 0.823 | 0.377 | 0.133 | 0.608 |
| RERF-LC-KJ | 0.947 | 0.879 | 0.871 | 0.716 | 0.986 | 0.667 | 0.431 | 0.27 | 0.42 |
| SK-LU-1 | 1.11 | 1.11 | 1.13 | 0.907 | 1.06 | 0.691 | 0.312 | 0.335 | 0.523 |
| SK-MES-1 | 1.02 | 0.809 | 0.498 | 0.41 | 1.05 | 0.975 | 0.581 | 0.232 | 0.665 |
| SW 900 | 1 | 0.803 | 0.863 | 0.65 | 0.755 | 1.01 | 0.626 | 0.358 | 0.717 |
| SW 1573 | 1.02 | 0.955 | 1.02 | 0.925 | 0.913 | 0.326 | 0.222 | 0.177 | 0.385 |
| UMC-11 | 0.956 | 0.944 | 1.18 | 0.964 | 0.903 | 0.171 | 0.146 | 0.212 | 0.318 |
